According to US7608577B2, “Peptidyl ketones as inhibitors of DPIV” (OSI Pharmaceuticals, Inc., priority 2001, dated 2009):

Assays:
[1] = target: porcine DP II; experiment: Inhibition of DPIV-like enzymes: dipeptidyl peptidase II; assay type: biochemical; conditions: inhibitor 1*10^−4 M-5*10^−8 M, pH7.6
Description: DP II (3.4.14.2) releases N-terminal dipeptides from oligopeptides if the N-terminus is not protonated (McDonald, J. K., Ellis, S. & Reilly, T. J., 1966, J. Biol. Chem., 241, 1494-1501). Pro and Ala in P1-position are preferred residues. The enzyme activity is described as DPIV-like activity, but DP II has an acidic pH-optimum. The enzyme used was purified from porcine kidney.
100 μl inhibitor in a concentration range of 1*10^−4 M-5*10^−8 M was admixed with 100 μl buffer solution (40 mM HEPES, pH7.6, 0.015% Brij, 1 mM DTT), 50 μl lysylalanylaminomethylcoumarine solution (5 mM) and 20 μl porcine DP II (250fold diluted in buffer solution). Fluorescence measurement was performed at 30° C. and λexcitation=380 nm, λemission=465 nm for 25 min using a plate reader (HTS7000plus, Applied Biosystems, Weiterstadt, Germany). The Ki-values were calculated using Graphit 4.0.15 (Erithacus Software, Ltd., UK).

[2] = target: attractin (Homo sapiens, UniProt O75882); experiment: Inhibition of DPIV-like enzymes: attractin; assay type: biochemical; conditions: inhibitor 1 mM to 30 nM, Gly-Pro-pNA 0.4 mM, APN
Description: 100 μl inhibitor stock solution was mixed with 100 μl buffer (HEPES pH7.6) and 20 μl diluted attractin and preincubated at 30° C. Reaction was started by addition of a mixture of 50 μl substrate (Gly-Pro-pNA, final concentration 0.4 mM) and 2 μl APN stock solution. Formation of the product pNA was measured at 405 nm and 30° C. over 10 min using the HTS 7000Plus plate reader (Perkin Elmer) and slopes were calculated. The final inhibitor concentrations ranged between 1 mM and 30 nM. For calculation of IC50 values, GraFit 4.0.13 (Erithacus Software) was used.

Sequence of attractin (O75882 84-1429, species assumed): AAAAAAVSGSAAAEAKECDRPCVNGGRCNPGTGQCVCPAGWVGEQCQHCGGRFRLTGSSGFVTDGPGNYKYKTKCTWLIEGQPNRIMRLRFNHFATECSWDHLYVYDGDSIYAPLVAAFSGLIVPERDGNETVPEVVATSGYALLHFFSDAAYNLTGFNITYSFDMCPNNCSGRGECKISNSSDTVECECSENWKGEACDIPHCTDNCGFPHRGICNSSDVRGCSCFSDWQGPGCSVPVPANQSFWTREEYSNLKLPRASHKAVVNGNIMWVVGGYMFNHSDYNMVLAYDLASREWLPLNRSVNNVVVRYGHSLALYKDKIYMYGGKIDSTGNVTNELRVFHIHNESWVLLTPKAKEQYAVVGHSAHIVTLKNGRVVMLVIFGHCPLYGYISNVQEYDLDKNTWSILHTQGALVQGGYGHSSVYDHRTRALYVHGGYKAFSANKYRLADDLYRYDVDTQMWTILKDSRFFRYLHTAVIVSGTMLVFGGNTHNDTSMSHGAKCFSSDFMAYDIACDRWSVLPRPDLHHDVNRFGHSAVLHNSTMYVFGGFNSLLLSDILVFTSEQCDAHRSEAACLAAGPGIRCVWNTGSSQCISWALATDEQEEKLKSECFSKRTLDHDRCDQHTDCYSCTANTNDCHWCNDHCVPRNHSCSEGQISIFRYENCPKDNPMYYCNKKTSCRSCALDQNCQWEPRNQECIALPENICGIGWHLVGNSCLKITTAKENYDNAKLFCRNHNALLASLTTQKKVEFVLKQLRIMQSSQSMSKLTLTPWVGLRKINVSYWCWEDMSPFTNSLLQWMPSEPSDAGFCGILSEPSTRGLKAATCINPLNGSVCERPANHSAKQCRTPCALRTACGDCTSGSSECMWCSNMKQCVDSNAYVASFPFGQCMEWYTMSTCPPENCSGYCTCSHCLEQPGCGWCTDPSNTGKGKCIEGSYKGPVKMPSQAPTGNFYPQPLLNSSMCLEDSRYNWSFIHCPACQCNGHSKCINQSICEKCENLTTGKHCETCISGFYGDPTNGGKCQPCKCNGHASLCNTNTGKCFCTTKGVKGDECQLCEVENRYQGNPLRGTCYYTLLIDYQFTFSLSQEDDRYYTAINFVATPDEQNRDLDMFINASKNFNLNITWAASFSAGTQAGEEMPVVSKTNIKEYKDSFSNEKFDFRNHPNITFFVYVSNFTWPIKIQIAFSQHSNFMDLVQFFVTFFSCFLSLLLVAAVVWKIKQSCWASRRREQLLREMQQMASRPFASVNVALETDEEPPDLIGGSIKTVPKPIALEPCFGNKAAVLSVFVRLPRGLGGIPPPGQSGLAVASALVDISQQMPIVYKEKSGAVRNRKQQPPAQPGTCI

Row | inhibition of DP II [1] | inhibition of attractin [2] | SMILES
1 | No inhibition | – | Br.CC(C)[C@H](NC(=O)[C@H](C)N)C(=O)N1CCC[C@H]1C(=O)COC(=O)c1ccccc1 [H-Ala-Val-Pro-CO—CH2O—CO—Ph*HBr, 2-[(Benzoyloxy-methyl)carbonyl]-1-N-[{(L)-Alanyl}-(L)-Valinyl]-(2S)-pyrrolidine hydrobromide]
2 | – | No inhibition | Br.CC(=O)[C@@H]1CCCN1C(=O)[C@@H](NC(=O)[C@H](C)N)C(C)C [H-Ala-Val-Pro-Me*HBr, 2-Methylcarbonyl-1-N-[(L)-Alanyl-(L)-Valinyl]-(2S)-pyrrolidine hydrobromide]
